Source: patent US12054562B2, “Cell-permeable inhibitory agent and methods of use thereof in treatment of cognitive and mood disorders” (priority 2015, dated 2024)

Tests used:
[1] = system: etomidate-induced memory deficits in mice; assay: Novel object recognition task, prevention paradigm; assay type: in vivo, mouse; conditions: Etom 8 mg/kg i.p., NOR next day
Description: The novel object recognition task involves the presentation of two identical objects for visual inspection (in the case of humans and non-human primates) and exploration in the case of rodents. After a delay, one of the original objects is presented together with a new (novel) object. Humans and animals normally spend time more time looking at (or in the case of mice, exploring) the novel object. Indeed, the test relies on the innate preference of humans and animals for novelty. The inspection or interaction time differs only if the familiar object is recognized. Otherwise, the subject spends an equal amount of time inspecting both objects. […]
In the present study, mice were handled two times a day, 5 min each before start of behavioral experiments. Object recognition was assessed in a circle opaque chamber with the diameter of 38.5 cm in a regular lit room. […] Movement and interaction with the objects was recorded with a video camera that was mounted above the chamber. The exploratory behavior and mouse activity was analyzed blindly by a person with a good training and the software EthoVision, XT v11.5 provided by the Noldus Information Tech Inc., (Leesburg VA, USA). […] Memory was assessed by measuring the novelty preference ratio (i.e., the ratio of time spent exploring the novel object to the time spent exploring both objects). […]

[2] = system: α5GABAA receptor cell-surface expression; assay: Receptor cell-surface ELISA assay in cultured hippocampal neurons; assay type: cell-based, mouse; conditions: medium from astrocytes treated with etomidate 1 μM, 1 hr; 24 hrs incubation
Experimental: This experimental cell culture model was used to test the effects of the inhibitory peptide on an overexpression of α5GABAA receptors on the surface of neurons. The medium from astrocytes that were treated with etomidate (1 μM, 1 hr) (conditioned medium) was collected, and the medium bathing cultured hippocampal neurons was exchanged with the astrocyte-conditioned medium. The cells were incubated at 37° C., 5% CO2 with the peptide or scramble peptide (2 μM). After 24 hrs incubation, the cells were used for receptor cell-surface ELISA assay. The cells were fixed in 4% paraformaldehyde for 20 min in the presence (permeabilized) or absence (non-permeabilized) of 1% Triton-X100. The cells, after 3 times wash with cold PBS and blocked with 5% bovine album solution, were incubated with a α5 antibody (Santa Cruz Biotech Inc.) at 4° C. overnight. The next day the cells were thoroughly washed with PBS and incubated with the horseradish peroxidase (HRP)-conjugated secondary antibody for 2 hrs. With HRP substrate added and color developed in the medium, the results were determined with microplate reader.
The cell surface expression of α5 subunit was presented as the ratio of the colorimetric reading under non-permeabilized conditions to those permeabilized conditions. Consistent with the previous report, etomidate increases α5GABAA receptor surface expression. This increase was blocked by the specific peptide, but not the scramble peptide (FIG. 6A).
For astrocyte culture, cortical astrocytes were isolated from embryonic day 18 (E18) mouse embryos. Cells were allowed to grow to confluence in MEM and 10% fetal bovine serum (FBS; Life Technologies, Grand Island, New York) for 14 d. Cells were then enzymatically dissociated with trypsin-EDTA (0.05%; Life Technologies, Grand Island, New York), and passaged three times to obtain a nearly pure astrocytic culture. Astrocytes were then plated at a density of 25,000 cells per dish. […]

radixin = assay: Western blot of radixin phosphorylation in hippocampus of treated mice; assay type: in vivo, mouse; conditions: etomidate 8 mg/kg, i.p., hippocampi 24 hrs later
Experimental: We next asked whether injection of inhibitory peptide, when administered to mice in vivo by I.P. injection, reduced the level of α5GABAA receptors expressed in the hippocampus. To test whether the peptide reduces α5GABAA receptor cell-surface expression in vivo, we took advantage of a mouse model that we developed recently (Zurek, et al., 2014), in which up-regulation of α5GABAA receptor cell surface expression causes memory deficits. Adult mice (22-25 g) were treated with etomidate (8 mg/kg, i.p.), and sacrificed 24 hrs later according to a protocol approved by the Animal Care Committee of the University of Toronto. The hippocampi were collected and subject to experiments. We first measured the level of radixin phosphorylation, because radixin phosphorylation is required for the recruitment of α5GABAA receptors to extrasynaptic sites of the neurons (Loebrich et al., 2006; Hausrat et al., 2015). The antibody against threonine at 564 of radixin, which is specific for radixin phosphorylation involving α5GABAA receptor extra-synaptic trafficking, was used for these studies (Choii et al., 2015; Hausrat et al., 2015). […] We next examined whether the inhibitory peptide prevented α5GABAA receptor from trafficking to surface membrane in vivo by studying ex vivo brain slices. […]

[3] = system: GABAA receptor-mediated tonic current in hippocampal neurons; assay: Whole-cell voltage-clamp recordings of tonic current in astrocyte-neuron co-cultures; assay type: cell-based, mouse; conditions: etomidate 1 μM, 1 h; measured 24 h after treatment
patients = conditions: cited from earlier work
[4] = target: T1, al subunit-containing GABAA receptors (Homo sapiens, UniProt P14867+P18507); conditions: at high concentrations; cited from earlier work
T1 sequence (P14867 28-456): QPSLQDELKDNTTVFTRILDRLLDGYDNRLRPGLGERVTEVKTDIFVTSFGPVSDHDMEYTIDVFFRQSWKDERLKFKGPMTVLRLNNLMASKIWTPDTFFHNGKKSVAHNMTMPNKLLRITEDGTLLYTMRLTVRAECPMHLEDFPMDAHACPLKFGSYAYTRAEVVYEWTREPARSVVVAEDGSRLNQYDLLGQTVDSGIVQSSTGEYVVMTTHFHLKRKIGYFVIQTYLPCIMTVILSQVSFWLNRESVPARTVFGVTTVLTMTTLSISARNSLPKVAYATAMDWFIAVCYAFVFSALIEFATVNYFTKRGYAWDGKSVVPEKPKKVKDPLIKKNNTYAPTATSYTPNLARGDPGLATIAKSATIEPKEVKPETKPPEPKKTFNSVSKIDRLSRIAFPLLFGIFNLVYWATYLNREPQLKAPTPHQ
T1 sequence (P18507 40-467 limits assumed): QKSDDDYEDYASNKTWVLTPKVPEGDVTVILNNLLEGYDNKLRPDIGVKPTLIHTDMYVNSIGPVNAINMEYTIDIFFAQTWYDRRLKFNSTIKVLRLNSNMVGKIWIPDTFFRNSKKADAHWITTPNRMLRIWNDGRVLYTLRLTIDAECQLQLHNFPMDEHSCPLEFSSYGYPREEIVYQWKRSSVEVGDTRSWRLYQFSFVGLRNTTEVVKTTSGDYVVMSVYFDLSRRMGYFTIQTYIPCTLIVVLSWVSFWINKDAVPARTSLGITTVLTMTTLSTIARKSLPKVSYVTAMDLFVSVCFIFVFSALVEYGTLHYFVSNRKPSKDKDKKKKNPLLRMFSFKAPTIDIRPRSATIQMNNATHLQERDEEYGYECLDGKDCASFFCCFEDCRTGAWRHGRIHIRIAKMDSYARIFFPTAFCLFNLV
T1 sequence (P28472 26-473 partner): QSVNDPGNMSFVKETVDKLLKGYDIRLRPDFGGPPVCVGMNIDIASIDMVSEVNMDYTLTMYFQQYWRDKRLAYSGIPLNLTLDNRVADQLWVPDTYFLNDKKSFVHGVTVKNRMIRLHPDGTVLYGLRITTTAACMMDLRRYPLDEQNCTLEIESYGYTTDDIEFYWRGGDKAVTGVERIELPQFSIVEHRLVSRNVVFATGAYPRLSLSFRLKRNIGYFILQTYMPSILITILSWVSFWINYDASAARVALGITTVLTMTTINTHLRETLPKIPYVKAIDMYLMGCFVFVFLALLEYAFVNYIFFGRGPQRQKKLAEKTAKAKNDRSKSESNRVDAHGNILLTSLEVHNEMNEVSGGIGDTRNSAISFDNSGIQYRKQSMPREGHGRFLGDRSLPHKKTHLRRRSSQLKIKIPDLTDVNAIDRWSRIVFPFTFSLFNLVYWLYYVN

healthy subjects = conditions: cited from earlier work
[5] = target: T2, α5 subunit-radixin interaction (Mus musculus, UniProt P26043); assay: Co-immunoprecipitation and Western blot of α5 subunit-radixin coupling in hippocampal tissue lysate; assay type: binding; conditions: 20 μM peptide without TAT sequence, one hour incubation
T2 construct: tissue lysate prepared from the hippocampus of adult mice; from tissue; host or cells: hippocampus of adult mice (C57BL/6J×SvEv)
T2 sequence (P26043 whole entry): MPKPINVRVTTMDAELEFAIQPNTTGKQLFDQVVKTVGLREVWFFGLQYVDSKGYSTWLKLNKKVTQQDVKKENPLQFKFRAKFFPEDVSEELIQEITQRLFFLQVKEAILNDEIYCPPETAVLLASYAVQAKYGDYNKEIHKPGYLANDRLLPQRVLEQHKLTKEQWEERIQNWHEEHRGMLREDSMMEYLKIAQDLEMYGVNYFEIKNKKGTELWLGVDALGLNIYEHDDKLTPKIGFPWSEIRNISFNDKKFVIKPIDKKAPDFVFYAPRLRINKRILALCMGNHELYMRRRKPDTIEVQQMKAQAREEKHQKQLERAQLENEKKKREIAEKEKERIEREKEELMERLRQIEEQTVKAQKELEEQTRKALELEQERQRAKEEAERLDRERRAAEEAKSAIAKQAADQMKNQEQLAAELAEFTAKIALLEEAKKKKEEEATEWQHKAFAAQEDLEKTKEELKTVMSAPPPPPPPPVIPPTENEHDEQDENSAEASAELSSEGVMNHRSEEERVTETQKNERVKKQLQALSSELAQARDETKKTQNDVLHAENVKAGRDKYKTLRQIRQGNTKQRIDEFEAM
Experimental: The experiments used tissue lysate prepared from the hippocampus of adult mice (C57BL/6J×SvEv, 2-4 month old, male). Hippocampal tissue was homogenized in ice-cold RIPA buffer (20 mM Tris-HCL, pH 7.5, 150 mM NaCl, 1 mM Na2EDTA, 1 mM EGTA, 1% NP-40, 1% sodium deoxycholate, 2.5 mM sodium pyrophosphate, 1 mM β-glycerophosphate) supplemented with 1 mM sodium orthovanadate and 1% protease inhibitor cocktail and 1% phosphatase inhibitor cocktail (Roche Diagnostics, GmbH, Manheim Germany). The tissue lysate was subsequently spun at 14,000 rpm for 30 min with the Microfuge 22R Centrifuge (Beckman Coulter™, Brea, California, US). The supernatant was collected and frozen at −20 C°. The next day, the supernatant, after thawing, was re-centrifuged at 14,000 rpm for another 30 min to clear the potential undissolved or pellet substances. After spinning twice, the supernatant was collected for subsequent experiments.
One hour following the incubation, the antibodies (2-4 μg) against either α5 subunit (cat #sc—31417, Santa Cruz Biotechnology, Inc., 10410 Finnell St. Dallas, TX, 75220, USA) or radixin (cat #ab91312, Abcam Inc., c/o 913860, PO Box 4090 Stn A, Toronto, ON M5W 0E9), or 4 μg of non-specific IgG protein (cat #sc—2028, Santa Cruz Biotechnology, Inc., 10410 Finnell St. Dallas, TX, 75220, USA), were added to the lysate solution. […]

CCOC(=O)c1cncn1[C@H](C)c1ccccc1 [etomidate]
preference for the novel object (NOR) [1]: showed no preference | α5GABAA receptor surface expression [2]: increases | radixin phosphorylation (pThr564) (radixin): increases | total radixin protein level (radixin): does not alter | amplitude of the tonic current [3]: caused an increase

Cc1cc(-c2nnc3c4ccccc4c(OCc4cn(C)nn4)nn23)no1 [α5IA]
reason clinical trial was stopped (patients): renal toxicity | action on al subunit-containing GABAA receptors [4]: activates | ethanol-induced impaired performance (healthy subjects): improves

TYFGRKNALWKAWKGD (Scramble peptide) [reference compound]
association between α5 subunit and radixin [5]: did not reduce this association
